From paper PMC12250965, “Design and Synthesis of Sulfonium and Selenonium Derivatives Bearing 3′,5′-O-Benzylidene Acetal Side Chain Structure as Potent α-Glucosidase Inhibitors” (Molecules, 2025)
Like-named read-outs stand apart in the source and are kept apart here.

What was measured:
rat intestinal maltase = assay: In vitro α-glucosidase inhibition assay, rat intestinal maltase; format: biochemical; details: rat small intestinal brush border membrane vesicles; maltose substrate; mean ± SD (n = 3); read-out: IC50 against maltase
Experimental: (§1) The testing method previously described was modified and used. Thus, rat small intestinal brush border membrane vesicles were first prepared, and its suspension in 0.1 M maleate buffer (pH = 6.0) was used as small intestinal α-glucosidases of maltase and sucrase. A test compound was dissolved in dimethylsulfoxide (DMSO), and the resulting solution was diluted with 0.1 M maleate buffer to prepare the test compound solution (concentration of DMSO: 10%). The substrate solution in maleate buffer ([…], 50 μL), a test compound solution (25 μL), and the enzyme solution (25 μL) were mixed and incubated at 37 °C for 30 min. After incubation, the solution was immediately heated by boiling water for 2 min to stop the reaction, and the solution was mixed with water (150 μL). Glucose concentration was determined by the glucose-oxidase method. […] The IC50 value was determined graphically by a plot of percent inhibition versus log of the test compound.

rat intestinal sucrase = target: T1, rat intestinal sucrase (Rattus norvegicus, UniProt P23739); assay: In vitro α-glucosidase inhibition assay, rat intestinal sucrase; format: biochemical
T1 construct: rat small intestinal brush border membrane vesicles were first prepared; from tissue; host or cells: rat small intestine, brush border membrane vesicles
Experimental: as §1

[1] = rat small intestinal brush border membrane vesicles, sucrose substrate, mean ± SD (n = 3), read-out: IC50 against sucrase

T1 sequence (P23739 whole entry): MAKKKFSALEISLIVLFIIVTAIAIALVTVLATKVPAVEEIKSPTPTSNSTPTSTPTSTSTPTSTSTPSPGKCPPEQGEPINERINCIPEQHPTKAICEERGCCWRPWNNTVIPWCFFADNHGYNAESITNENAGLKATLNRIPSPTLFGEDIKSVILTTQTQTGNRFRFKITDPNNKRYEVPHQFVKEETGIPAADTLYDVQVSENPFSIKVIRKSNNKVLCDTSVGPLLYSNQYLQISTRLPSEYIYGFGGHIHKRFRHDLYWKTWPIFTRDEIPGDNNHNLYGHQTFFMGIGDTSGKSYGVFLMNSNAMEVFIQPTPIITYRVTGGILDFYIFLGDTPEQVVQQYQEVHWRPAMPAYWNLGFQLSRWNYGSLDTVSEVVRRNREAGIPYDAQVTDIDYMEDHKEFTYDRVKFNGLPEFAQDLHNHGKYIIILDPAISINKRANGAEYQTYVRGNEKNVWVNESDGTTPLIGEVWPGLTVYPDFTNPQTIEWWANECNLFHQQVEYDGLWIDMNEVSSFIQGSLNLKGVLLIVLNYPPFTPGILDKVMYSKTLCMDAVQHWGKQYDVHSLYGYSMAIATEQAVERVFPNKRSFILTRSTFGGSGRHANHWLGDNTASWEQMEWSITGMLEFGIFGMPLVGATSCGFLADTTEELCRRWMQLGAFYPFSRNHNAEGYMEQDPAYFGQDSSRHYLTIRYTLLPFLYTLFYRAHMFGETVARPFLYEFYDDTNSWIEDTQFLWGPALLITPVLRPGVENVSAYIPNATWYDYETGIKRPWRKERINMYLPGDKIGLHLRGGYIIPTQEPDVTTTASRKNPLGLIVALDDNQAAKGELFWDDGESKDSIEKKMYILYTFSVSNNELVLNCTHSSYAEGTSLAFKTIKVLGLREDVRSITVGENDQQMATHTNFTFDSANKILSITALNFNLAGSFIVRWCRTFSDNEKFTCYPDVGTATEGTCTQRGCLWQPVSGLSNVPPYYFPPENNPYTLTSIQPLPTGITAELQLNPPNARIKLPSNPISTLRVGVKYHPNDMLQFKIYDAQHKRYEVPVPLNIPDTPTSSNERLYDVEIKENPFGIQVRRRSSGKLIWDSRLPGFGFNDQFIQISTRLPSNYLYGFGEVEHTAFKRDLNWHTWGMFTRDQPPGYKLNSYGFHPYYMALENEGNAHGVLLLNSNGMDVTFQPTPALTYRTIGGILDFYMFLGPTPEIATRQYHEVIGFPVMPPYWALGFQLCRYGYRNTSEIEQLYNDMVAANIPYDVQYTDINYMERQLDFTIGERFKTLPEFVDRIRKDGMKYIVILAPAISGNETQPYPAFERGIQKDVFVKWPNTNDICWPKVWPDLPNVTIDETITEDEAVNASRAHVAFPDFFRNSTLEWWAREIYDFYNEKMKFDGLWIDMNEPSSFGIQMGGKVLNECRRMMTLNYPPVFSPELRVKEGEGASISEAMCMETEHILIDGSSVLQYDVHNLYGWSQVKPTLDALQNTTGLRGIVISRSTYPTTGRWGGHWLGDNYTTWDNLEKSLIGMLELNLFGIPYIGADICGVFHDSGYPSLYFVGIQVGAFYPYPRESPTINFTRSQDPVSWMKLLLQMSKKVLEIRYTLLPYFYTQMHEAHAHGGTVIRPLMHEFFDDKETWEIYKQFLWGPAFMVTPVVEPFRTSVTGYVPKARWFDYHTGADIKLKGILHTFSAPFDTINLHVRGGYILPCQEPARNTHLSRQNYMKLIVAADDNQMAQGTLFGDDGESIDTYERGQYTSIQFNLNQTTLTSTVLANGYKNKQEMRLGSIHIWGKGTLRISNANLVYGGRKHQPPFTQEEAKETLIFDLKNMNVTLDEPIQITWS

IC50 (rat intestinal sucrase; [1]) [nM]	Structure (SMILES)	IC50 (rat intestinal maltase) [nM]	IC50 (rat intestinal sucrase) [nM]
10000 ± 1800	OCC1C(O)C(O)C[S+]1CC(O)C1OC(c2cc(C(F)(F)F)cc(C(F)(F)F)c2)OCC1O [19i, 1,4-Dideoxy-1,4-[(R)-(5-deoxy-1,3-O-(3,5-bis(trifluoromethyl)benzylidene)-D-arabinitol-5-yl)episulfoniumylidene]-D-arabinitol chloride]	8900 ± 530	
	OC[C@@H]1[C@@H](O)[C@H](O)C[Se@+]1C[C@@H](O)[C@H]1OC(c2ccccc2-c2ccccc2)OC[C@H]1O (stereo partly drawn) [20r, (1S,2R,3S,4S)-1-((2S)-2-((4S,5R)-2-([1,1′-biphenyl]-2-yl)-5-hydroxy-1,3-dioxan-4-yl)-2-hydroxyethyl)-3,4-dihydroxy-2-(hydroxymethyl)tetrahydro-1H-selenophen-1-ium chloride]	2000 ± 520	720 ± 170
3300 ± 220	OCC1C(O)C(O)C[S+]1CC(O)C1OC(c2ccccc2-c2ccccc2)OCC1O [19r, 1,4-Dideoxy-1,4-[(R)-(5-deoxy-1,3-O-(2-phenylbenzylidene)-D-arabinitol-5-yl)episulfoniumylidene]-D-arabinitol chloride]	10500 ± 1100	
	OC[C@@H]1[C@@H](O)[C@H](O)C[Se@+]1C[C@@H](O)[C@H]1OC(c2cc(C(F)(F)F)cc(C(F)(F)F)c2)OC[C@H]1O (stereo partly drawn) [20i, (1S,2R,3S,4S)-1-((2S)-2-((4S,5R)-2-(3,5-Bis(trifluoromethyl)phenyl)-5-hydroxy-1,3-dioxan-4-yl)-2-hydroxyethyl)-3,4-dihydroxy-2-(hydroxymethyl)tetrahydro-1H-selenophen-1-ium chloride]	1010 ± 320	410 ± 110
5500 ± 620	OCC1C(O)C(O)C[S+]1CC(O)C1OC(c2cc(Cl)cc(Cl)c2)OCC1O [19g, 1,4-Dideoxy-1,4-[(R)-(5-deoxy-1,3-O-(3,5-dichlorobenzylidene)-D-arabinitol-5-yl)episulfoniumylidene]-D-arabinitol chloride]	4900 ± 250	
	OC[C@@H]1[C@@H](O)[C@H](O)C[Se@+]1C[C@@H](O)[C@H]1OC(c2ccc(Br)cc2)OC[C@H]1O (stereo partly drawn) [20m, (1S,2R,3S,4S)-1-((2S)-2-((4S,5R)-2-(4-Bromophenyl)-5-hydroxy-1,3-dioxan-4-yl)-2-hydroxyethyl)-3,4-dihydroxy-2-(hydroxymethyl)tetrahydro-1H-selenophen-1-ium chloride]	70 ± 30	200 ± 50
5800 ± 410	OCC1C(O)C(O)C[S+]1CC(O)C1OC(c2cccc3ccccc23)OCC1O [19q, 1,4-Dideoxy-1,4-[(R)-(5-deoxy-1,3-O-(1-naphthalene)-D-arabinitol-5-yl)episulfoniumylidene]-D-arabinitol chloride]	4600 ± 370	
	OC[C@@H]1[C@@H](O)[C@H](O)C[Se@+]1C[C@@H](O)[C@H]1OC(c2ccccc2Br)OC[C@H]1O (stereo partly drawn) [20k, (1S,2R,3S,4S)-1-((2S)-2-((4S,5R)-2-(2-Bromophenyl)-5-hydroxy-1,3-dioxan-4-yl)-2-hydroxyethyl)-3,4-dihydroxy-2-(hydroxymethyl)tetrahydro-1H-selenophen-1-ium chloride]	530 ± 220	120 ± 50
	OC[C@@H]1[C@@H](O)[C@H](O)C[Se@+]1C[C@@H](O)[C@H]1OC(c2ccc(Cl)cc2Cl)OC[C@H]1O (stereo partly drawn) [20b, (1S,2R,3S,4S)-1-((2S)-2-((4S,5R)-2-(2,4-Dichlorophenyl)-5-hydroxy-1,3-dioxan-4-yl)-2-hydroxyethyl)-3,4-dihydroxy-2-(hydroxymethyl)tetrahydro-1H-selenophen-1-ium chloride]	260 ± 80	220 ± 60
6600 ± 450	OCC1C(O)C(O)C[S+]1CC(O)C1OC(c2cc(F)ccc2Cl)OCC1O [19e, 1,4-Dideoxy-1,4-[(R)-(5-deoxy-1,3-O-(2-chloro-5-fluorobenzylidene)-D-arabinitol-5-yl)episulfoniumylidene]-D-arabinitol chloride]		
